According to the supplement of paper PMC10627819:

How the values were obtained:
[1] = tested on: B. subtilis 168; assay: fitness (endpoint OD595 vs no drug) (fraction); higher = more growth
Outline: (§1)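 Fitness was measured as bacterial growth in 384-well plates inoculated at OD595 0.01 (30 µl, or 55 µl for S. pneumoniae). Media were TSB, LB Lennox or CY, at 37 °C. OD595 was read every 30 min for 14 h and background-subtracted against the first reading. Fitness is OD595 at the transition into stationary phase divided by the robust mean of no-drug control wells, capped at 1.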

[2] = tested on: S. aureus Newman; assay: as above
Outline: as §1

[3] = tested on: S. pneumoniae D39V; assay: as above
Outline: as §1

[4] = tested on: S. aureus DSM 20231; assay: Bliss interaction score (quartile over a dose matrix) (fitness difference); higher = more antagonism (negative = synergy)
Outline: (§2)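 Growth was read as OD595 when cultures entered stationary phase, and each value was divided by the plate's robust no-drug mean and capped at 1. This normalised ratio is the fitness value, and fitness for each single drug came from the combination data. The Bliss score subtracts the expected fitness, taken as the product, from the observed fitness and is given as quartiles across technical, biological and donor/recipient replicates.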

[5] = tested on: B. subtilis 168; assay: as above
Outline: as §2

[6] = tested on: S. aureus Newman; assay: as above
Outline: as §2

[7] = tested on: S. pneumoniae D39V; assay: as above
Outline: as §2

[8] = tested on: S. aureus DSM 20231; assay: fitness (endpoint OD595 vs no drug) (fraction); higher = more growth
Outline: as §1
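For Bliss interaction score (quartile over a dose matrix) in this document: first quartile when negative (synergy) and third quartile when positive (antagonism).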
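For fitness (endpoint OD595 vs no drug) in this document: OD595 on entry to stationary phase over no-drug wells; at most 1.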

O=C(O)c1cn(C2CC2)c2cc(N3CCNCC3)c(F)cc2c1=O [Ciprofloxacin] + CN(N=O)C(=O)N[C@@H](C=O)[C@@H](O)[C@H](O)[C@H](O)CO [Streptozotocin]
Conditions | fitness
[1], first compound 0.0098 µg/mL, partner 0.15 µg/mL | 0.886
[1], first compound 0.0098 µg/mL, partner 0.3 µg/mL | 0.954
[1], first compound 0.0098 µg/mL, partner 0.6 µg/mL | 0.887
[1], first compound 0.0195 µg/mL, partner 0.15 µg/mL | 0.674
[1], first compound 0.0195 µg/mL, partner 0.3 µg/mL | 0.678
[1], first compound 0.0195 µg/mL, partner 0.6 µg/mL | 0.666
[1], first compound 0.039 µg/mL, partner 0.15 µg/mL | 0.117
[1], first compound 0.039 µg/mL, partner 0.3 µg/mL | 0.119
[1], first compound 0.039 µg/mL, partner 0.6 µg/mL | 0.13
[2], first compound 0.0375 µg/mL, partner 0.15 µg/mL | 0.602
[2], first compound 0.0375 µg/mL, partner 0.3 µg/mL | 0.565
[2], first compound 0.0375 µg/mL, partner 0.6 µg/mL | 0.398
[2], first compound 0.075 µg/mL, partner 0.15 µg/mL | 0.448
[2], first compound 0.075 µg/mL, partner 0.6 µg/mL | 0.194
[2], first compound 0.15 µg/mL, partner 0.15 µg/mL | 0.0223
[2], first compound 0.15 µg/mL, partner 0.3 µg/mL | 0.0444
[2], first compound 0.15 µg/mL, partner 0.6 µg/mL | 0.0059
[3], first compound 0.125 µg/mL, partner 1.2 µg/mL | 0.929
[3], first compound 0.125 µg/mL, partner 2.4 µg/mL | 0.926
[3], first compound 0.125 µg/mL, partner 4.8 µg/mL | 0.95
[3], first compound 0.25 µg/mL, partner 1.2 µg/mL | 0.839
[3], first compound 0.25 µg/mL, partner 4.8 µg/mL | 0.797
[3], first compound 0.5 µg/mL, partner 4.8 µg/mL | 0.567

Conditions | Bliss interaction score
[4] | -0.0435
[5] | -0.082
[6] | -0.112
[7] | -0.0511

CO/N=C(\C(=O)N[C@@H]1C(=O)N2C(C(=O)O)=C(COC(C)=O)CS[C@H]12)c1csc(N)n1 [Cefotaxime] + CN[C@@H]1[C@H](O[C@H]2[C@H](O[C@H]3[C@H](O)[C@@H](O)[C@H](N=C(N)N)[C@@H](O)[C@@H]3N=C(N)N)O[C@@H](C)[C@]2(O)C=O)O[C@@H](CO)[C@H](O)[C@H]1O [Streptomycin]
fitness, one replicate
Conditions | first compound 0.0018 µg/mL | first compound 0.0035 µg/mL | first compound 0.007 µg/mL | first compound 0.00775 µg/mL | first compound 0.0155 µg/mL | first compound 0.031 µg/mL
[1], partner 2 µg/mL | – | – | – | 0.784 | 0.492 | 0.414
[1], partner 4 µg/mL | – | – | – | 0.0757 | 0.0218 | 0.0306
[1], partner 8 µg/mL | – | – | – | 0.0214 | 0.0302 | 0.0308
[3], partner 16 µg/mL | 0.92 | 0.881 | 0.654 | – | – | –

fitness
Conditions | partner 1 µg/mL | partner 2 µg/mL | partner 4 µg/mL | partner 8 µg/mL
[1], first compound 0.5 µg/mL | – | 0.0795 | 0.043 | 0.0401
[1], first compound 1 µg/mL | – | 0.0611 | 0.0445 | 0.0309
[1], first compound 2 µg/mL | – | 0.061 | 0.048 | 0.0478
[2], first compound 0.078 µg/mL | 0.761 | 0.757 | 0.72 | –
[2], first compound 0.156 µg/mL | 0.589 | 0.589 | 0.474 | –
[2], first compound 0.312 µg/mL | 0.382 | 0.29 | 0.155 | –
[2], first compound 0.625 µg/mL | 0.114 | 0.0719 | 0.0326 | –
[2], first compound 1.25 µg/mL | 0.0262 | 0.0178 | 0.0244 | –
[2], first compound 2.5 µg/mL | 0.0379 | 0.0307 | 0.0187 | –
[3], first compound 0.0018 µg/mL | – | 0.966 | 0.996 | 0.964
[3], first compound 0.0035 µg/mL | – | 0.945 | 0.974 | 0.963
[3], first compound 0.007 µg/mL | – | 0.787 | 0.822 | 0.846

Conditions | Bliss interaction score
[4] | -0.0464
[5] | -0.105
[6] | -0.0376
[7] | 0.0714

C[C@@H]1O[C@@H]1P(=O)(O)O [Fosfomycin] + COc1cc(Cc2cnc(N)nc2N)cc(OC)c1OC [Trimethoprim]
fitness
Conditions | partner 0.125 µg/mL | partner 0.25 µg/mL | partner 0.5 µg/mL | partner 1 µg/mL
[1], first compound 1.562 µg/mL | 0.572 | 0.405 | 0.35 | –
[1], first compound 3.124 µg/mL | 0.447 | 0.369 | 0.218 | –
[1], first compound 6.248 µg/mL | 0.307 | 0.236 | 0.0904 | –
[8], first compound 0.781 µg/mL | 0.592 | 0.56 | 0.182 | 0.0323
[8], first compound 1.562 µg/mL | 0.56 | 0.484 | 0.106 | 0.0286
[8], first compound 3.124 µg/mL | 0.499 | 0.327 | 0.0645 | 0.0282

fitness, [1], one replicate
Conditions | partner 0.1 µg/mL | partner 0.2 µg/mL | partner 0.4 µg/mL | partner 1 µg/mL | partner 2 µg/mL
first compound 1.562 µg/mL | 0.649 | 0.564 | 0.397 | 0.17 | 0.119
first compound 3.124 µg/mL | 0.497 | 0.35 | 0.18 | 0.0628 | 0.0617
first compound 6.248 µg/mL | 0.209 | 0.101 | 0.0381 | 0.0277 | 0.0228

Conditions | Bliss interaction score
[4] | 0.0599
[5] | -0.112
[6] | 0.0927
[7] | 0.158

O=C(O)c1cn(C2CC2)c2cc(N3CCNCC3)c(F)cc2c1=O [Ciprofloxacin] + C[C@@H]1O[C@@H]1P(=O)(O)O [Fosfomycin]
Conditions | fitness
[1], first compound 0.0098 µg/mL, partner 1.562 µg/mL | 0.669
[1], first compound 0.0098 µg/mL, partner 3.124 µg/mL | 0.577
[1], first compound 0.0195 µg/mL, partner 1.562 µg/mL | 0.409
[1], first compound 0.0195 µg/mL, partner 6.248 µg/mL | 0.169
[1], first compound 0.039 µg/mL, partner 1.562 µg/mL | 0.0478
[1], first compound 0.039 µg/mL, partner 3.124 µg/mL | 0.035
[1], first compound 0.039 µg/mL, partner 6.248 µg/mL | 0.0167
[2], first compound 0.0375 µg/mL, partner 0.781 µg/mL | 0.553
[2], first compound 0.0375 µg/mL, partner 1.562 µg/mL | 0.455
[2], first compound 0.0375 µg/mL, partner 3.124 µg/mL | 0.0938
[2], first compound 0.075 µg/mL, partner 0.781 µg/mL | 0.527
[2], first compound 0.075 µg/mL, partner 3.124 µg/mL | 0.117
[2], first compound 0.15 µg/mL, partner 0.781 µg/mL | 0.168
[2], first compound 0.15 µg/mL, partner 1.562 µg/mL | 0.114
[2], first compound 0.15 µg/mL, partner 3.124 µg/mL | 0.0354
[3], first compound 0.125 µg/mL, partner 1.25 µg/mL | 0.94
[3], first compound 0.125 µg/mL, partner 2.5 µg/mL | 0.892
[3], first compound 0.125 µg/mL, partner 5 µg/mL | 0.688
[3], first compound 0.25 µg/mL, partner 1.25 µg/mL | 0.865
[3], first compound 0.25 µg/mL, partner 2.5 µg/mL | 0.782
[3], first compound 0.25 µg/mL, partner 5 µg/mL | 0.652
[3], first compound 0.5 µg/mL, partner 5 µg/mL | 0.42

Conditions | Bliss interaction score
[4] | 0.042
[5] | -0.177
[6] | 0.0638
[7] | -0.0628

CO/N=C(\C(=O)N[C@@H]1C(=O)N2C(C(=O)O)=C(COC(C)=O)CS[C@H]12)c1csc(N)n1 [Cefotaxime] + CC1=C(C(=O)O)N2C(=O)[C@@H](NC(=O)[C@H](N)c3ccccc3)[C@H]2SC1 [Cephalexin]
fitness, one replicate
Conditions | partner 0.125 µg/mL | partner 0.25 µg/mL | partner 0.5 µg/mL | partner 1 µg/mL
[1], first compound 0.00775 µg/mL | – | 0.868 | 0.903 | 0.851
[1], first compound 0.0155 µg/mL | – | 0.729 | 0.728 | 0.748
[1], first compound 0.031 µg/mL | – | 0.62 | 0.631 | 0.615
[2], first compound 0.039 µg/mL | – | 0.904 | 0.952 | ≥ 1
[2], first compound 0.312 µg/mL | – | 0.402 | 0.38 | 0.371
[3], first compound 0.0018 µg/mL | ≥ 1 | 0.959 | 1 | –
[3], first compound 0.0035 µg/mL | 0.953 | 0.967 | 0.977 | –
[3], first compound 0.007 µg/mL | 0.777 | 0.875 | 0.724 | –

Conditions | fitness
[1], first compound 0.5 µg/mL, partner 0.125 µg/mL | 0.235
[1], first compound 0.5 µg/mL, partner 0.25 µg/mL | 0.221
[1], first compound 0.5 µg/mL, partner 0.5 µg/mL | 0.248
[1], first compound 1 µg/mL, partner 0.125 µg/mL | 0.152
[1], first compound 1 µg/mL, partner 0.25 µg/mL | 0.123
[1], first compound 1 µg/mL, partner 0.5 µg/mL | 0.148
[1], first compound 2 µg/mL, partner 0.125 µg/mL | 0.124
[1], first compound 2 µg/mL, partner 0.25 µg/mL | 0.125
[1], first compound 2 µg/mL, partner 0.5 µg/mL | 0.0819
[2], first compound 0.078 µg/mL, partner 0.25 µg/mL | 0.751
[2], first compound 0.078 µg/mL, partner 0.5 µg/mL | 0.797
[2], first compound 0.078 µg/mL, partner 1 µg/mL | 0.817
[2], first compound 0.156 µg/mL, partner 0.25 µg/mL | 0.636
[2], first compound 0.156 µg/mL, partner 0.5 µg/mL | 0.631
[2], first compound 0.156 µg/mL, partner 1 µg/mL | 0.713
[2], first compound 0.625 µg/mL, partner 0.5 µg/mL | 0.248
[2], first compound 1.25 µg/mL, partner 0.25 µg/mL | 0.159
[2], first compound 1.25 µg/mL, partner 0.5 µg/mL | 0.111
[2], first compound 1.25 µg/mL, partner 1 µg/mL | 0.0956
[2], first compound 2.5 µg/mL, partner 0.25 µg/mL | 0.0395
[2], first compound 2.5 µg/mL, partner 0.5 µg/mL | 0.0255
[2], first compound 2.5 µg/mL, partner 1 µg/mL | 0.0566
[3], first compound 0.0018 µg/mL, partner 1 µg/mL | 0.815
[3], first compound 0.0018 µg/mL, partner 2 µg/mL | 0.242
[3], first compound 0.0018 µg/mL, partner 4 µg/mL | 0.0372
[3], first compound 0.0035 µg/mL, partner 1 µg/mL | 0.679
[3], first compound 0.0035 µg/mL, partner 2 µg/mL | 0.168
[3], first compound 0.0035 µg/mL, partner 4 µg/mL | 0.0436
[3], first compound 0.007 µg/mL, partner 2 µg/mL | 0.0426
[3], first compound 0.007 µg/mL, partner 4 µg/mL | 0.0416

Conditions | Bliss interaction score
[4] | 0.0629
[5] | 0.101
[6] | 0.09
[7] | -0.0656
